Assay results as given in ChEMBL document CHEMBL4828776, “Acremopeptaibols A-F, 16-Residue Peptaibols from the Sponge-Derived Acremonium sp. IMB18-086 Cultivated with Heat-Killed Pseudomonas aeruginosa” (J Nat Prod, 2021).
Converted amounts (≈) assume the structure as drawn. Non-standard residues stand in square brackets, D forms with d. Residues, ends and D or L forms follow the SMILES beside them. Hyp = O=C(O)[C@@H]1C[C@@H](O)CN1; Phe(ol) = N[C@H](CO)Cc1ccccc1; Aib = CC(C)(N)C(=O)O

Tests used:
Staphylococcus aureus [1] = assay: Antibacterial activity against Staphylococcus aureus ATCC 25923 assessed as inhibition of bacterial growth incubated for 16 hrs by microdilution method; assay type: functional
Staphylococcus aureus [2] = assay: Antibacterial activity against methicillin-resistant Staphylococcus aureus ATCC 33591 assessed as inhibition of bacterial growth incubated for 16 hrs by microdilution method; assay type: functional
[3] = tested on: Staphylococcus epidermidis; assay: Antibacterial activity against Staphylococcus epidermidis ATCC 12228 assessed as inhibition of bacterial growth incubated for 16 hrs by microdilution method; assay type: functional
Bacillus subtilis = assay: Antibacterial activity against Bacillus subtilis ATCC 6633 assessed as inhibition of bacterial growth incubated for 16 hrs by microdilution method; assay type: functional
Pseudomonas aeruginosa = assay: Antibacterial activity against Pseudomonas aeruginosa ATCC 27853 assessed as inhibition of bacterial growth incubated for 16 hrs by microdilution method; assay type: functional
Staphylococcus aureus [4] = assay: Antibacterial activity against Staphylococcus aureus ATCC 29213 assessed as inhibition of bacterial growth incubated for 16 hrs by microdilution method; assay type: functional
Enterococcus faecalis = assay: Antibacterial activity against vancomycin-resistant Enterococcus faecalis 21-07 assessed as inhibition of bacterial growth incubated for 16 hrs by microdilution method; assay type: functional
Escherichia coli = assay: Antibacterial activity against Escherichia coli ATCC 25922 assessed as inhibition of bacterial growth incubated for 16 hrs by microdilution method; assay type: functional
Candida albicans = assay: Antifungal activity against Candida albicans ATCC 10231 assessed as inhibition of fungal growth incubated for 16 hrs by microdilution method; assay type: functional
A549 = assay: Cytotoxicity against human A549 cells assessed as reduction in cell viability incubated for 48 hrs by CCK8 assay; assay type: functional, cell-based; conditions: A549, 48 h
HepG2 = assay: Cytotoxicity against human HepG2 cells assessed as reduction in cell viability incubated for 48 hrs by CCK8 assay; assay type: functional, cell-based; conditions: HepG2, 48 h

Molecule	MIC (Staphylococcus aureus [1]) [µg/mL]	MIC (Staphylococcus aureus [2]) [µg/mL]	MIC [3] [µg/mL]	MIC (Bacillus subtilis) [µg/mL]	MIC (Pseudomonas aeruginosa) [µg/mL]	MIC (Staphylococcus aureus [4]) [µg/mL]	MIC (Enterococcus faecalis) [µg/mL]	MIC (Escherichia coli) [µg/mL]	MIC (Candida albicans) [µg/mL]	IC50 (A549) [nM]	IC50 (HepG2) [nM]
COLISTIN	64	128	16	16	1	128	> 128	1			
NYSTATIN									> 128		
CC[C@@](C)(NC(=O)CNC(=O)[C@@](C)(CC)NC(=O)[C@H](CCC(N)=O)NC(=O)C(C)(C)NC(=O)[C@H](Cc1c[nH]c2ccccc12)NC(C)=O)C(=O)N[C@@H](C)C(=O)NC(C)(C)C(=O)NC(C)(C)C(=O)NCC(=O)N[C@@H](CCC(N)=O)C(=O)NC(C)(C)C(=O)N1C[C@H](O)C[C@@H]1C(=O)NC(C)(C)C(=O)N1CCC[C@H]1C(=O)N[C@H](CO)Cc1ccccc1	> 128	> 128	> 128	> 128	> 128	> 128	> 128	> 128	64 (≈ 38.7 µM)	≥ 50000	≥ 50000
CC(/C=C/[C@@]1(C)[C@H](C)CC[C@@H](O)[C@@H]1C)=C\Cc1c(O)c(Cl)c(C)c(C=O)c1O	16 (≈ 39.3 µM)	> 128	16 (≈ 39.3 µM)	32 (≈ 78.6 µM)	> 128	> 128	> 128	> 128	> 128	900	900
CC(/C=C/[C@@]1(C)[C@H](C)CCC(=O)[C@@H]1C)=C\Cc1c(O)c(Cl)c(C)c(C=O)c1O [ASCOCHLORIN]	1 (≈ 2.47 µM)	> 128	0.25 (≈ 0.617 µM)	2 (≈ 4.94 µM)	> 128	16 (≈ 39.5 µM)	> 128	> 128	4 (≈ 9.88 µM)	900	900
CC[C@@](C)(NC(=O)CNC(=O)[C@@](C)(CC)NC(=O)[C@H](CCC(N)=O)NC(=O)C(C)(C)NC(=O)[C@H](Cc1c[nH]c2ccccc12)NC(C)=O)C(=O)N[C@@H](C)C(=O)NC(C)(C)C(=O)NC(C)(C)C(=O)NCC(=O)N[C@@H](CCC(N)=O)C(=O)N[C@](C)(CC)C(=O)N1C[C@H](O)C[C@H]1C(=O)NC(C)(C)C(=O)N1CCC[C@H]1C(=O)N[C@H](CO)Cc1ccccc1	64 (≈ 38.3 µM)	64 (≈ 38.3 µM)	> 128	16 (≈ 9.59 µM)	> 128	32 (≈ 19.2 µM)	> 128	> 128	16 (≈ 9.59 µM)	≥ 50000	≥ 50000
CC(=O)N[C@@H](Cc1c[nH]c2ccccc12)C(=O)NC(C)(C)C(=O)N[C@@H](CCC(N)=O)C(=O)NC(C)(C)C(=O)NCC(=O)NC(C)(C)C(=O)N[C@@H](C)C(=O)NC(C)(C)C(=O)NC(C)(C)C(=O)NCC(=O)N[C@@H](CCC(N)=O)C(=O)NC(C)(C)C(=O)N1C[C@H](O)C[C@H]1C(=O)NC(C)(C)C(=O)N1CCC[C@H]1C(=O)N[C@H](CO)Cc1ccccc1 (Ac-W[Aib]Q[Aib]G[Aib]A[Aib][Aib]GQ[Aib][Hyp][Aib]P[Phe(ol)])	> 128	> 128	> 128	> 128	> 128	> 128	> 128	> 128	> 128	≥ 50000	≥ 50000
C/C(=C\Cc1c(O)c(Cl)c(C)c(C=O)c1O)CC/C=C(\C)[C@@H]1CC(=O)C(C)(C)O1 [ASCOFURANONE]	4 (≈ 9.5 µM)	32 (≈ 76 µM)	4 (≈ 9.5 µM)	16 (≈ 38 µM)	> 128	16 (≈ 38 µM)	> 128	> 128	32 (≈ 76 µM)	900	900
CC[C@@](C)(NC(=O)[C@H](CCC(N)=O)NC(=O)C(C)(C)NC(=O)[C@H](Cc1c[nH]c2ccccc12)NC(C)=O)C(=O)NCC(=O)NC(C)(C)C(=O)N[C@@H](C)C(=O)NC(C)(C)C(=O)NC(C)(C)C(=O)NCC(=O)N[C@@H](CCC(N)=O)C(=O)NC(C)(C)C(=O)N1C[C@H](O)C[C@H]1C(=O)NC(C)(C)C(=O)N1CCC[C@H]1C(=O)N[C@H](CO)Cc1ccccc1	> 128	> 128	> 128	64 (≈ 39 µM)	> 128	> 128	> 128	> 128	64 (≈ 39 µM)	≥ 50000	≥ 50000
CC[C@@](C)(NC(=O)[C@H](CCC(N)=O)NC(=O)C(C)(C)NC(=O)[C@H](Cc1c[nH]c2ccccc12)NC(C)=O)C(=O)NCC(=O)NC(C)(C)C(=O)N[C@@H](C)C(=O)NC(C)(C)C(=O)NC(C)(C)C(=O)NCC(=O)N[C@@H](CCC(N)=O)C(=O)N[C@](C)(CC)C(=O)N1C[C@H](O)C[C@H]1C(=O)NC(C)(C)C(=O)N1CCC[C@H]1C(=O)N[C@H](CO)Cc1ccccc1	64 (≈ 38.7 µM)	64 (≈ 38.7 µM)	> 128	16 (≈ 9.67 µM)	> 128	64 (≈ 38.7 µM)	> 128	> 128	32 (≈ 19.3 µM)	≥ 50000	≥ 50000
CC[C@@](C)(NC(=O)[C@H](CCC(N)=O)NC(=O)CNC(=O)C(C)(C)NC(=O)C(C)(C)NC(=O)[C@H](C)NC(=O)C(C)(C)NC(=O)CNC(=O)C(C)(C)NC(=O)[C@H](CCC(N)=O)NC(=O)C(C)(C)NC(=O)[C@H](Cc1c[nH]c2ccccc12)NC(C)=O)C(=O)N1C[C@H](O)C[C@H]1C(=O)NC(C)(C)C(=O)N1CCC[C@H]1C(=O)N[C@H](CO)Cc1ccccc1	128 (≈ 78 µM)	128 (≈ 78 µM)	> 128	32 (≈ 19.5 µM)	> 128	128 (≈ 78 µM)	> 128	> 128	64 (≈ 39 µM)	≥ 50000	≥ 50000
C/C(=C\Cc1c(O)c(Cl)c(C)c(C=O)c1O)[C@H](O)C[C@@]1(C)[C@H](C)CCC(=O)[C@@H]1C	128 (≈ 303 µM)	> 128	> 128	> 128	> 128	> 128	> 128	> 128	> 128	900	900
CN[C@H](CC(C)C)C(=O)N[C@H]1C(=O)N[C@@H](CC(N)=O)C(=O)N[C@H]2C(=O)N[C@H]3C(=O)N[C@H](C(=O)N[C@H](C(=O)O)c4cc(O)cc(O)c4-c4cc3ccc4O)[C@H](O)c3ccc(c(Cl)c3)Oc3cc2cc(c3O[C@@H]2O[C@H](CO)[C@@H](O)[C@H](O)[C@H]2O[C@H]2C[C@](C)(N)[C@H](O)[C@H](C)O2)Oc2ccc(cc2Cl)[C@H]1O [VANCOMYCIN]				0.125 (≈ 0.0863 µM)	> 128		16 (≈ 11 µM)	> 128			
